Test results reported in ChEMBL document CHEMBL4368890, “Progress toward allosteric ligands of metabotropic glutamate 7 (mGlu7) receptor: 2008-present” (Medchemcomm, 2019).

Experiments:
[1] = molecular target: T1, Metabotropic glutamate receptor 7 (Homo sapiens, UniProt Q14831); assay: Agonist activity at mGlu7 (unknown origin)
[2] = molecular target: Metabotropic glutamate receptor 8 (Rattus norvegicus, UniProt P70579); assay: Agonist activity at rat mGlu8 receptor expressed in HEK cell co-expressing Galpha15 (unknown origin) assessed as […] intracellular Ca2+ mobilization by Fluo-4-AM dye based fluorescence assay; type: functional
[3] = molecular target: T1, Metabotropic glutamate receptor 7; assay: Agonist activity at human mGlu7
[4] = molecular target: Metabotropic glutamate receptor 7 (Mus musculus, UniProt Q68ED2); assay: Agonist activity at mouse mGlu7
[5] = molecular target: Metabotropic glutamate receptor 4 (Homo sapiens, UniProt Q14833); assay: Agonist activity at mGlu4 (unknown origin)
[6] = molecular target: T1, Metabotropic glutamate receptor 7; assay: Allosteric agonist activity at human mGlu7 expressed in CHO cells assessed as reduction in forskolin-induced cAMP production after 30 mins by cAMP reagent-based assay; type: functional, cell-based
[7] = molecular target: T1, Metabotropic glutamate receptor 7; assay: Allosteric agonist activity at human mGlu7 expressed in CHO cells assessed as reduction in forskolin-induced cAMP production after 30 mins by cAMP reagent-based assay relative to control; type: functional, cell-based
[8] = Lipophilicity, logP of the compound; type: physicochemical; settings: octanol/water
[9] = molecular target: T2, Metabotropic glutamate receptor 3 (Homo sapiens, UniProt Q14832); assay: Allosteric agonist activity at human mGlu3 expressed in CHO cells assessed as reduction in forskolin-induced cAMP production after 30 mins by cAMP reagent-based assay; type: functional, cell-based
[10] = molecular target: T3, Metabotropic glutamate receptor 5 (Homo sapiens, UniProt P41594); assay: Allosteric agonist activity at human mGlu5 expressed in CHO cells assessed as reduction in forskolin-induced cAMP production after 30 mins by cAMP reagent-based assay; type: functional, cell-based
[11] = molecular target: T1, Metabotropic glutamate receptor 7; assay: Negative allosteric modulator activity at human mGlu7 assessed as reduction in Ca2+ mobilization by HTS assay; type: functional
[12] = molecular target: Metabotropic glutamate receptor 1 (Homo sapiens, UniProt Q13255); assay: Allosteric activity at mGlu1 (unknown origin)
[13] = molecular target: Metabotropic glutamate receptor 2 (Homo sapiens, UniProt Q14416); assay: Allosteric activity at mGlu2 (unknown origin)
[14] = molecular target: T2, Metabotropic glutamate receptor 3; assay: Allosteric activity at mGlu3 (unknown origin)
[15] = molecular target: T3, Metabotropic glutamate receptor 5; assay: Allosteric activity at mGlu5 (unknown origin)
[16] = molecular target: Metabotropic glutamate receptor 6 (Homo sapiens, UniProt O15303); assay: Allosteric activity at mGlu6 (unknown origin)
[17] = […], Kp in mouse at 10 mg/kg, ip after 1 hr; type: ADME, organism-based; settings: in vivo
[18] = molecular target: T1, Metabotropic glutamate receptor 7; assay: Agonist activity at human mGlu7 expressed in CHO cells assessed as reduction in forskolin-induced cAMP production; type: functional, cell-based

T3 sequence (P41594 whole entry): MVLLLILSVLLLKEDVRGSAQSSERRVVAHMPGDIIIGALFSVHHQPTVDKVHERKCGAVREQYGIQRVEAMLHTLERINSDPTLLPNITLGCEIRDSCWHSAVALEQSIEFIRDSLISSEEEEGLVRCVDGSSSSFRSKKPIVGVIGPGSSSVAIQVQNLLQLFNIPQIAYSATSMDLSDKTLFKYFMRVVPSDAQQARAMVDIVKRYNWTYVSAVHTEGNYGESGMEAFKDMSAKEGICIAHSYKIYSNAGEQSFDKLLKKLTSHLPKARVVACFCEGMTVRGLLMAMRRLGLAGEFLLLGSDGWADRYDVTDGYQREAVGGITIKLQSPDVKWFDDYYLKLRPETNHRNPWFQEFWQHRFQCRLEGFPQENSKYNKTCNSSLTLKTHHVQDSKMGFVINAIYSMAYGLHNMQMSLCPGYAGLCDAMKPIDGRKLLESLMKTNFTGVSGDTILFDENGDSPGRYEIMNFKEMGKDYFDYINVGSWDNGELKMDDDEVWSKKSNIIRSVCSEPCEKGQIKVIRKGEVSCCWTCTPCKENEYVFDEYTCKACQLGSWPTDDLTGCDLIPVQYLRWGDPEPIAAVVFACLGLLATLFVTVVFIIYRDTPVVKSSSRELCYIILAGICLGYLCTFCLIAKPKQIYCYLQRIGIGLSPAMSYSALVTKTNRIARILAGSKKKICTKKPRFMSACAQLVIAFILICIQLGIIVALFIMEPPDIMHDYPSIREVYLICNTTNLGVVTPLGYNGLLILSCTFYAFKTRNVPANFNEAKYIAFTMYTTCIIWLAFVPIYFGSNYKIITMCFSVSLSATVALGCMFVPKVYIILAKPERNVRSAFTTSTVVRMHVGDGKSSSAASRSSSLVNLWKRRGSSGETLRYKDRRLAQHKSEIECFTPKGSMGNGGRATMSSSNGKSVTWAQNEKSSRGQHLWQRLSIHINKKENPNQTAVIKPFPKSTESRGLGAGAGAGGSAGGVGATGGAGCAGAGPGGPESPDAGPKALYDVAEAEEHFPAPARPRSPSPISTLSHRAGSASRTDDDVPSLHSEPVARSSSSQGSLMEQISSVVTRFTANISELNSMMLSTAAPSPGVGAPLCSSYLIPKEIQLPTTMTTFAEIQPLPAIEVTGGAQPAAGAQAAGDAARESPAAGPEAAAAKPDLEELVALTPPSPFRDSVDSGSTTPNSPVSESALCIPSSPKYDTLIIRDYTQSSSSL
T2 sequence (Q14832 whole entry): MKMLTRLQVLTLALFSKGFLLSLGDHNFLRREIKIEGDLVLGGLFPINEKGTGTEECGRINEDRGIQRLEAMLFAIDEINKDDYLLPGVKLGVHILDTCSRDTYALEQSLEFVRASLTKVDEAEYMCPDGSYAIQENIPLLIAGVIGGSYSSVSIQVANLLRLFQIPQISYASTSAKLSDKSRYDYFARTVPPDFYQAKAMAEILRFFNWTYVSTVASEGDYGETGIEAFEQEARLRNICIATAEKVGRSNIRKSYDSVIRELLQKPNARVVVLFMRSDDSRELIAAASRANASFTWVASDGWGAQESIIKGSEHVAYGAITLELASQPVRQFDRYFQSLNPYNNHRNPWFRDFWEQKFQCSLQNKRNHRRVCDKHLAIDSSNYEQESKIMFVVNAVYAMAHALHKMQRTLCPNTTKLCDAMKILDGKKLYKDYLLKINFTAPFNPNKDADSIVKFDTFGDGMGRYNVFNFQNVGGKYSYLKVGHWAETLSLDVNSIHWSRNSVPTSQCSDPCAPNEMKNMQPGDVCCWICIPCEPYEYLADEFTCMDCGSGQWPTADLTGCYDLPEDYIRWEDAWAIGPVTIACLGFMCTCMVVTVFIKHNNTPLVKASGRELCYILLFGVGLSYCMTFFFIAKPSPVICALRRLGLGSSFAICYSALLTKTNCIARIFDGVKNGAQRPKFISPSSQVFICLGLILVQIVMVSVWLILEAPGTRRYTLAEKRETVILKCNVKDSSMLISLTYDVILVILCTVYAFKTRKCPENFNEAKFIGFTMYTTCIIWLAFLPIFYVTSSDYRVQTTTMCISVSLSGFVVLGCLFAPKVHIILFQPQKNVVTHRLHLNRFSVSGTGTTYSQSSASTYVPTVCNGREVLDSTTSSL
T1 sequence (Q14831 whole entry): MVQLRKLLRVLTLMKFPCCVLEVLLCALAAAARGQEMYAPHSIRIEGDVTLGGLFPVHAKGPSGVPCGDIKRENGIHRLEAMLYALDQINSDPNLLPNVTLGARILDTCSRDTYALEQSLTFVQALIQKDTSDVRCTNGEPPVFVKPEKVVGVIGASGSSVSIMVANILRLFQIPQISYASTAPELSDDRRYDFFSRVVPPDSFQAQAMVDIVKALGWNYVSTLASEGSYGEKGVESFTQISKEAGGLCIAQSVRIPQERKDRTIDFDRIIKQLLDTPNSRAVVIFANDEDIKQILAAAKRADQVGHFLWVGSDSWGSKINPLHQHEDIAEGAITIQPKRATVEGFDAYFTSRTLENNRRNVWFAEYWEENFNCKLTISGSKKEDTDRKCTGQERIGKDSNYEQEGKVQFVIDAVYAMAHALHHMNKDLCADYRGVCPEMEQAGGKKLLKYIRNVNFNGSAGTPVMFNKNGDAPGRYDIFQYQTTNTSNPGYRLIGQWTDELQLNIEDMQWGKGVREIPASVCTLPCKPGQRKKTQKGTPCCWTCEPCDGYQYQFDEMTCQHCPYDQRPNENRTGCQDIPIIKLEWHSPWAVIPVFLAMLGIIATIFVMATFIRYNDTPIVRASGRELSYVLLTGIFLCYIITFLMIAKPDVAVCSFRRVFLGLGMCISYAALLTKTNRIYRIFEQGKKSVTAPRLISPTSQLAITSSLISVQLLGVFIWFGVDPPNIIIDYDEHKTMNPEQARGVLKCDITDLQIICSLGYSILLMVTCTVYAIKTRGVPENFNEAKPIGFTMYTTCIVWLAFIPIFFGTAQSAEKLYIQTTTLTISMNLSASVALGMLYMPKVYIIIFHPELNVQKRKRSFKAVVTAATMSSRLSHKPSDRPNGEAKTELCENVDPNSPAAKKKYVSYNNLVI
Metabotropic glutamate receptor 6, sequence (O15303 whole entry): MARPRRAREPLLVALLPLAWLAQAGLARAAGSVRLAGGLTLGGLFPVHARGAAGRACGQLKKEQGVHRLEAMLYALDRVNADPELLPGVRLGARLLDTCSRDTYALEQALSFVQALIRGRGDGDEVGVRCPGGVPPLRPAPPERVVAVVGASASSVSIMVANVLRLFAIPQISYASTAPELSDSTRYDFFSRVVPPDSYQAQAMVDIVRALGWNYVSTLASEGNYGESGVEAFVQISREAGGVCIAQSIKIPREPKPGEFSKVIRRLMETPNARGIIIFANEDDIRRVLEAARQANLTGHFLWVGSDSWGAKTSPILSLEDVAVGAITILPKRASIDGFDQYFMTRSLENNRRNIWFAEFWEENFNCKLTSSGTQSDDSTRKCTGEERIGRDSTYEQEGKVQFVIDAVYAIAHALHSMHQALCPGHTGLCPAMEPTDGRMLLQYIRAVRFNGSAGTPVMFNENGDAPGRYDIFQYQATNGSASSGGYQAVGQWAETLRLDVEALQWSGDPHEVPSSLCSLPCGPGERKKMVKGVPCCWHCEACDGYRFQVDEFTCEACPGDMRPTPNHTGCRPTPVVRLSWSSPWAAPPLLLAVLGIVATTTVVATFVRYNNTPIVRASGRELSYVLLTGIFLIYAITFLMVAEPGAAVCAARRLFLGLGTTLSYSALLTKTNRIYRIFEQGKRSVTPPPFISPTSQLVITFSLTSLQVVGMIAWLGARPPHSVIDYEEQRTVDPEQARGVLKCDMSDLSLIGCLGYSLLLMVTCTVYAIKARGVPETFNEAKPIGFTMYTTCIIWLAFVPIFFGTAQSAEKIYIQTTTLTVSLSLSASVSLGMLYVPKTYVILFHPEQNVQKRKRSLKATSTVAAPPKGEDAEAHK
Metabotropic glutamate receptor 2, sequence (Q14416 whole entry): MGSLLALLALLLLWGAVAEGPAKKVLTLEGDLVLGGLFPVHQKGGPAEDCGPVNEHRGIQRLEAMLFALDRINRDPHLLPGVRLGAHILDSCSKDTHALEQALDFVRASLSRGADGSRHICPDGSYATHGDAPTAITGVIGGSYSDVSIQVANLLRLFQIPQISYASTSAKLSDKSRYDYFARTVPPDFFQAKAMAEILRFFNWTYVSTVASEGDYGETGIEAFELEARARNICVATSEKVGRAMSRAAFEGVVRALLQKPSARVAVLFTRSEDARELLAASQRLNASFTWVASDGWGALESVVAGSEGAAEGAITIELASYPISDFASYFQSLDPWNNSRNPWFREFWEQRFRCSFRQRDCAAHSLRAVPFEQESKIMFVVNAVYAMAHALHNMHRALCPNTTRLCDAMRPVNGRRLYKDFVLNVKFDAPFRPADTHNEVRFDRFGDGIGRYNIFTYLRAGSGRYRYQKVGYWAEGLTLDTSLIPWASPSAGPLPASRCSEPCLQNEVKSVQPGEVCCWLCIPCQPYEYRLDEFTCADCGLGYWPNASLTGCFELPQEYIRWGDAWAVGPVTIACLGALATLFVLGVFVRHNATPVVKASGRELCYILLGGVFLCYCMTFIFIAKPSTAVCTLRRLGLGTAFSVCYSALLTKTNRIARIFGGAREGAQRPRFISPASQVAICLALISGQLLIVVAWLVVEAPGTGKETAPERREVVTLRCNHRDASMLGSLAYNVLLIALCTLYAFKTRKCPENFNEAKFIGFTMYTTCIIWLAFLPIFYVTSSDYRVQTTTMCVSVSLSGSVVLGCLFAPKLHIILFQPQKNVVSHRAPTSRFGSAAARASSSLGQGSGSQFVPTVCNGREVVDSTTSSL
Metabotropic glutamate receptor 7 (Mus musculus, UniProt Q68ED2), sequence (Q68ED2 whole entry): as the sequence (Q14831 whole entry) above, with R5G, A27V, S488T, A520P, D578N counted along it

## C[C@H](C(=O)NC1COc2ccc(F)cc2C1O)c1ccccc1 (stereo not given in full)
[1]
  EC50: 1.21 nM

## COC(=O)c1ccc(-n2c(C)cc(C(=O)CSc3ccc(NC(C)=O)cc3)c2C)cc1
[2]
  EC50: 930 nM

## C[C@H](C(=O)NC1COc2ccccc2C1S(C)(=O)=O)c1ccc(F)cc1 (stereo not given in full)
[3]
  EC50: 6.9 nM
[4]
  EC50: 1.8 nM

## CCc1nn2c(C(F)(F)F)cc(C)nc2c1-c1cc(F)c(OC)cc1F
[5]
  EC50: 2100 nM

## c1ccc(C(NCCNC(c2ccccc2)c2ccccc2)c2ccccc2)cc1
[6]
  EC50: 158 nM
[7]
  Emax: 62%
[8]
  logP: 5.9

## CNC(=O)N1CCCC(CN2CCC(OC(c3ccccc3)c3ccccc3)CC2)C1 (stereo not given)
[9]
  pEC50: 6.2
[10]
  EC50: 631 nM

## CCc1nc2c(o1)CC(c1ccc(C)cc1C)CC2=O (stereo not given)
[11]
  IC50: 63 nM

## CNCC[C@H](NCC(=O)N1CCCc2ccccc21)c1ccccc1
[8]
  logP: 3

## O=C(NCc1ccccc1F)C1c2ccccc2CC(=O)N1CC1CC1 (stereo not given)
[1]
  EC50: 29.2 nM

## COc1ccc(-c2c(C)nn3c(C(F)(F)F)cc(C)nc23)c(F)c1F
[12]
  EC50: > 10000 nM
  IC50: > 10000 nM
[13]
  EC50: > 10000 nM
  IC50: > 10000 nM
[14]
  EC50: > 10000 nM
  IC50: > 10000 nM
[15]
  EC50: > 10000 nM
  IC50: > 10000 nM
[16]
  EC50: > 10000 nM
  IC50: > 10000 nM
[17]
  Kp at 1 h: 2.1

## O=C(C[C@H](NCC1CC1)c1ccccc1)N1CCCOc2ccccc21
[18]
  EC50: 1 nM
